Data: US9573956B2, “Compounds as dual inhibitors of phosphodiesterases and histone deacetylases” (FUNDACIÓN PARA LA INVESTIGACIÓN MÉDICA APLICADA, priority 2013, dated 2017)

Experiments:
Type in all cases: biochemical
[1] = molecular target: T1, PDE5A (Homo sapiens, UniProt O76074); experiment: PDE enzyme activity assay (HTRF cGMP), PDE5A; conditions: recombinant enzyme; read-out: PDE5A1 inhibition (IC50)
T1 construct: they are full-length with N-terminal GST tag; GST (N); purchased BPS Biosciences 60050; host or cells: baculovirus infected Sf9 cells

[2] = molecular target: HDAC1 (Homo sapiens, UniProt Q13547); experiment: HDAC enzyme activity assay (fluorogenic substrate), HDAC1; conditions: recombinant enzyme; read-out: HDAC1 inhibition (IC50)
[3] = molecular target: T2, HDAC2 (Homo sapiens, UniProt Q92769); experiment: HDAC enzyme activity assay (fluorogenic substrate), HDAC2; conditions: recombinant enzyme; read-out: HDAC2 inhibition (IC50)
T2 construct: NM_001527; Cat. #50002) is full-length with C-terminal his tag; His (C); purchased BPS Biosciences 50002; host or cells: baculovirus infected Sf9 cells

[4] = molecular target: T3, HDAC6 (Homo sapiens, UniProt Q9UBN7); experiment: HDAC enzyme activity assay (fluorogenic substrate), HDAC6; conditions: recombinant enzyme; read-out: HDAC6 inhibition (IC50)
T3 construct: BC069243; Cat. #50006) is full-length with N-terminal GST tag; GST (N); purchased BPS Biosciences 50006; host or cells: baculovirus infected Sf9 cells
T3 sequence (Q9UBN7 1-1215): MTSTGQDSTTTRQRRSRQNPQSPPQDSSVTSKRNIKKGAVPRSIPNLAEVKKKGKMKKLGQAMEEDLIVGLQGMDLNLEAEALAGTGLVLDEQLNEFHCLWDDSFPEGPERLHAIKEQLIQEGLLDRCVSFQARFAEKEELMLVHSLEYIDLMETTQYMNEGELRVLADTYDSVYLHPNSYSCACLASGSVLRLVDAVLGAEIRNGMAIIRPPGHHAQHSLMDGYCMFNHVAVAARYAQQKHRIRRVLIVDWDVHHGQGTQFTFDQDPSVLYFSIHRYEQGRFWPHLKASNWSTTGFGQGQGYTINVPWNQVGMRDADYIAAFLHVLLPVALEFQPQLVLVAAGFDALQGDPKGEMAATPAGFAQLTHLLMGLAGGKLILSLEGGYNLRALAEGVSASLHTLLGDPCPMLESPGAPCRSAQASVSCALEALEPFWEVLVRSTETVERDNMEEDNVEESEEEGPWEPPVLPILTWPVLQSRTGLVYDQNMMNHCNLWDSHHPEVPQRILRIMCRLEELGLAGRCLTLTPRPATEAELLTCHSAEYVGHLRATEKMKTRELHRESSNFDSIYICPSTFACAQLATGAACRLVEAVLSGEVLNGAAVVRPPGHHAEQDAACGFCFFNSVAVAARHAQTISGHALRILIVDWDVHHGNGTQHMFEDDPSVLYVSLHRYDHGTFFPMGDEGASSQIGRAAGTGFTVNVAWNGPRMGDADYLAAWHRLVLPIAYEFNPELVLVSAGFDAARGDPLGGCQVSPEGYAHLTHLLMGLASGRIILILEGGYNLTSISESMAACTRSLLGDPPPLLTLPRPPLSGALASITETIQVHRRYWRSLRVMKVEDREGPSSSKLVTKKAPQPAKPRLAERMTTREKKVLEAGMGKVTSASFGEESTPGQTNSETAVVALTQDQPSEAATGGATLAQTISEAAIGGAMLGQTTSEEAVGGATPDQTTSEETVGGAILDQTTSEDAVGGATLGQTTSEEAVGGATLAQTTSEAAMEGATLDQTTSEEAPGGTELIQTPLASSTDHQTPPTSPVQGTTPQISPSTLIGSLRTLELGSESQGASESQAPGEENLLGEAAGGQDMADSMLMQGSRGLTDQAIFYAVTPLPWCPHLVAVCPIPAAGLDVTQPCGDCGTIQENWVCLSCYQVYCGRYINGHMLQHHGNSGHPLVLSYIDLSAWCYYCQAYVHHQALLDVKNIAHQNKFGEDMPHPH

Sequence of HDAC1 (Q13547 whole entry): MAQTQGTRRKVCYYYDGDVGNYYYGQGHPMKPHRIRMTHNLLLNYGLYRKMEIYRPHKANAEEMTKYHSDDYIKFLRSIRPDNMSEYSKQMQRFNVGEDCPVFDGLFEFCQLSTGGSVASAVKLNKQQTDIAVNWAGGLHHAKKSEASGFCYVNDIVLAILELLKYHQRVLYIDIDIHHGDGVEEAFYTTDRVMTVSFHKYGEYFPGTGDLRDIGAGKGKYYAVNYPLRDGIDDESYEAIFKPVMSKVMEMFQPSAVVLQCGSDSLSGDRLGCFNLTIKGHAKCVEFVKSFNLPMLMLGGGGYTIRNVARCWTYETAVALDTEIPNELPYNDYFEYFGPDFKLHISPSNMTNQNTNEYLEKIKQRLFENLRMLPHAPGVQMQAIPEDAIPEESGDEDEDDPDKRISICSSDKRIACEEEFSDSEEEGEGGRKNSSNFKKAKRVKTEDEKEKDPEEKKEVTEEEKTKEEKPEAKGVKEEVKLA
T2 sequence (Q92769 whole entry): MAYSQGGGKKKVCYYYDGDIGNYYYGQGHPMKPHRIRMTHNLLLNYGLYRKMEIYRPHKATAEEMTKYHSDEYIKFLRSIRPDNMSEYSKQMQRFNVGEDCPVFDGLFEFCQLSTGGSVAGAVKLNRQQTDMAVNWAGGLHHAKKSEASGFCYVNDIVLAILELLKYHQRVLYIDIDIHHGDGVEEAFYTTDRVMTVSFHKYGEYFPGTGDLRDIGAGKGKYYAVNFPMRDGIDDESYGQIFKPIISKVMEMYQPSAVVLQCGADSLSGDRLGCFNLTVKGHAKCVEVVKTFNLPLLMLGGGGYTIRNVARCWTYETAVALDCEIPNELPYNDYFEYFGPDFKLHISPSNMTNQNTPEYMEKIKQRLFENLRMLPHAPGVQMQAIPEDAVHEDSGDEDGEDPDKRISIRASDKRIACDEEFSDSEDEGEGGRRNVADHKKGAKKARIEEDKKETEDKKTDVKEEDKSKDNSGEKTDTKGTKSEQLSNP

| Compound | IC50 [1] [nM] | IC50 [2] [nM] | IC50 [3] [nM] | IC50 [4] [nM] |
| --- | --- | --- | --- | --- |
| CCCc1nn(C)c2c(=O)[nH]c(-c3cc(S(=O)(=O)N4CCN(CCCC(=O)NO)CC4)ccc3OCC)nc12 [Example 1-05] | < 10 | 1000 to 10000 | 1000 to 10000 | – |
| CCCc1nn(C)c2c(=O)[nH]c(-c3cc(NC4CCN(c5ccc(C(=O)NO)cc5)CC4)ccc3OCC)nc12 [Example 1-47] | 10 to 1000 | 1000 to 10000 | – | 1000 to 10000 |
| CCCc1nn(C)c2c(=O)[nH]c(-c3cc(-c4ccc(C(=O)NO)cn4)ccc3OCC)nc12 [Example 1-72] | < 10 | – | – | 10 to 1000 |
| CCCc1nn(C)c2c(=O)[nH]c(-c3cc(-c4ccc(C(=O)NO)o4)ccc3OCC)nc12 [Example 1-74] | < 10 | – | – | 1000 to 10000 |
| CCCc1nn(C)c2c(=O)[nH]c(-c3cc(S(=O)(=O)N4CCN(CCC(=O)NO)CC4)ccc3OCC)nc12 [Example 1-04, 3-(4-[3-(6,7-Dihydro-1-methyl-7-oxo-3-propyl-1H-pyrazolo[4,3-d]pyrimidin-5-yl)-4-ethoxyphenylsulfonyl]piperazin-1-yl)-N-hydroxypropanamide] | < 10 | 1000 to 10000 | > 10000 | – |
| CCCc1nn(C)c2c(=O)[nH]c(-c3cc(C(=O)c4ccc(C(=O)NO)s4)ccc3OCC)nc12 [Example 1-79, 5-[4-ethoxy-3-(1-methyl-7-oxo-3-propyl-6H-pyrazolo[4,3-d]pyrimidin-5-yl)benzoyl]thiophene-2-carbohydroxamic acid] | < 10 | – | – | 10 to 1000 |
| CCCc1nn(C)c2c(=O)[nH]c(-c3cc(C(OC)c4ccc(C(=O)NO)cc4)ccc3OCC)nc12 (stereo not drawn) [Example 1-77, 4-[[4-ethoxy-3-(1-methyl-7-oxo-3-propyl-6H-pyrazolo[4,3-d]pyrimidin-5-yl)phenyl]-methoxy-methyl]benzenecarbohydroxamic acid] | 10 to 1000 | – | – | 10 to 1000 |
| CCCc1nn(C)c2c(=O)[nH]c(-c3cccc(OC4CCN(c5ncc(C(=O)NO)cn5)CC4)c3)nc12 [Example 1-14] | 1000 to 10000 | 10 to 1000 | – | 10 to 1000 |
| CCCc1nn(C)c2c(=O)[nH]c(-c3cc(C4CC(C(=O)NO)C4)ccc3OCC)nc12 (racemic) [Example 1-82, 3-[4-ethoxy-3-(1-methyl-7-oxo-3-propyl-6H-pyrazolo[4,3-d]pyrimidin-5-yl)phenyl]cyclobutanecarbohydroxamic acid] | 10 to 1000 | – | – | 10 to 1000 |
| CCCc1nn(C)c2c(=O)[nH]c(-c3cc(-c4ccc(C(=O)NO)s4)ccc3OCC)nc12 [Example 1-71] | < 10 | – | – | 10 to 1000 |
| CCCc1nn(C)c2c(=O)[nH]c(-c3cc(C(O)c4ccc(C(=O)NO)cc4)ccc3OCC)nc12 (stereo not drawn) [Example 1-78, 4-[[4-ethoxy-3-(1-methyl-7-oxo-3-propyl-6H-pyrazolo[4,3-d]pyrimidin-5-yl)phenyl]-hydroxy-methyl]benzenecarbohydroxamic acid] | < 10 | – | – | 10 to 1000 |
| CCCc1nn(C)c2c(=O)[nH]c(-c3cc(-c4ccc(C(=O)NO)nc4)ccc3OCC)nc12 [Example 1-73] | < 10 | – | – | 10 to 1000 |
| CCCc1nn(C)c2c(=O)[nH]c(-c3cc(C4CCC(C(=O)NO)CC4)ccc3OCC)nc12 (racemic) [Example 1-75, 4-[4-ethoxy-3-(1-methyl-7-oxo-3-propyl-6H-pyrazolo[4,3-d]pyrimidin-5-yl)phenyl]cyclohexanecarbohydroxamic acid] | 10 to 1000 | – | – | 1000 to 10000 |
| CCCc1nn(C)c2c(=O)[nH]c(-c3cc(CC4CCC(C(=O)NO)C4)ccc3OCC)nc12 (racemic) [Example 1-80, 3-[[4-ethoxy-3-(1-methyl-7-oxo-3-propyl-6H-pyrazolo[4,3-d]pyrimidin-5-yl)phenyl]methyl]cyclopentanecarbohydroxamic acid] | 10 to 1000 | – | – | 10 to 1000 |
| CCCc1nn(C)c2c(=O)[nH]c(-c3cc(CC4CCC(C(=O)NO)CC4)ccc3OCC)nc12 (racemic) [Example 1-76, 4-[[4-ethoxy-3-(1-methyl-7-oxo-3-propyl-6H-pyrazolo[4,3-d]pyrimidin-5-yl)phenyl]methyl]cyclohexanecarbohydroxamic acid] | 10 to 1000 | – | – | 10 to 1000 |
| CCCc1nn(C)c2c(=O)[nH]c(-c3cc(OCC4CCN(c5ncc(C(=O)NO)cn5)CC4)ccc3OCC)nc12 [Example 1-11, N-Hydroxy-2-(4-[3-(6,7-dihydro-1-methyl-7-oxo-3-propyl-1H-pyrazolo[4,3-d]pyrimidin-5-yl)-4-ethoxyphenoxymethyl]-piperidin-1-yl)pyrimidine-5-carboxamide] | 1000 to 10000 | 10 to 1000 | – | – |
| CCCc1nn(C)c2c(=O)[nH]c(-c3cc(CC4CCC(C(=O)NO)C4)ccc3OCC)nc12 (stereo not drawn) [Example 1-83, 3-[[4-ethoxy-3-(1-methyl-7-oxo-3-propyl-6H-pyrazolo[4,3-d]pyrimidin-5-yl)phenyl]methyl]cyclopentanecarbohydroxamic acid] | 10 to 1000 | – | – | 10 to 1000 |
| CCCc1nn(C)c2c(=O)[nH]c(-c3cc(S(=O)(=O)N4CCN(C)CC4)ccc3OCC)nc12 [Sildenafil, reference compound] | – | > 10000 | – | – |

Next, values leading:

| IC50 [1] [nM] | IC50 [2] [nM] | IC50 [3] [nM] | IC50 [4] [nM] | Compound |
| --- | --- | --- | --- | --- |
| 10 to 1000 | 10 to 1000 | – | – | O=C(/C=C/c1ccc(CN2CCC(N3CC(=O)N4[C@H](c5ccc6c(c5)OCO6)c5[nH]c6ccccc6c5C[C@@H]4C3=O)CC2)cc1)NO [Example 4-04] |
| 10 to 1000 | > 10000 | – | – | O=C(/C=C/c1ccc(N2CC(=O)N3[C@H](c4ccc5c(c4)OCO5)c4[nH]c5ccccc5c4C[C@@H]3C2=O)cc1)NO [Example 4-01, (E)-N-Hydroxy-4-[6-(1,3-benzodioxol-5-yl)-2,3,6,7,12,12a-hexahydropyrazino[1′,2′:1,6]pyrido[3,4-b]indole-1,4-dion-2-yl]phenylprop-2-enamide] |
| 10 to 1000 | 10 to 1000 | – | – | O=C(NO)c1cnc(N2CCC(N3CC(=O)N4C(Cc5c([nH]c6ccccc56)C4c4ccc5c(c4)OCO5)C3=O)CC2)nc1 (racemic) [Example 4-03, N-Hydroxy-2-(4-[6-(1,3-benzodioxol-5-yl)-2,3,6,7,12,12a-hexahydropyrazino[1′,2′:1,6]pyrido[3,4-b]indole-1,4-dion-2-yl]piperidin-1-yl)pyrimidine-5-carboxamide] |
| < 10 | – | – | 10 to 1000 | CCCc1nc(C)c2c(=O)[nH]c(-c3cc(-c4ccc(C(=O)NO)cc4)ccc3OCC)nn12 [Example 2-11] |
| < 10 | – | – | 1000 to 10000 | CCCc1nc(C)c2c(=O)[nH]c(-c3cc(C4CCC(C(=O)NO)CC4)ccc3OCC)nn12 (racemic) [Example 2-12, 4-[4-ethoxy-3-(5-methyl-4-oxo-7-propyl-3H-imidazo[5,1-f][1,2,4]triazin-2-yl)phenyl]cyclohexanecarbohydroxamic acid] |
| < 10 | – | – | 10 to 1000 | CCCc1nc(C)c2c(=O)[nH]c(-c3cc(C4CCC(C(=O)NO)CC4)ccc3OCC)nn12 (stereo not drawn) [Example 2-13, 4-[4-ethoxy-3-(5-methyl-4-oxo-7-propyl-3H-imidazo[5,1-f][1,2,4]triazin-2-yl)phenyl]cyclohexanecarbohydroxamic acid] |
| < 10 | 1000 to 10000 | – | – | CCCc1nc(C)c2c(=O)[nH]c(-c3cc(S(=O)(=O)N4CCN(Cc5ccc(/C=C/C(=O)NO)cc5)CC4)ccc3OCC)nn12 [Example 2-01, (E)-3-[4-[[4-[4-Ethoxy-3-(5-methyl-4-oxo-7-propyl-3H-imidazo[5,1-f][1,2,4]triazin-2-yl)phenyl]sulfonylpiperazin-1-yl]methyl]phenyl]prop-2-enehydroxamic acid] |
| 10 to 1000 | > 10000 | – | – | O=C(CCCN1CCC(N2CC(=O)N3[C@H](c4ccc5c(c4)OCO5)c4[nH]c5ccccc5c4C[C@@H]3C2=O)CC1)NO [Example 4-02] |
| < 10 | – | – | 10 to 1000 | CCCc1nc(C)c2c(=O)[nH]c(-c3cc(Cc4ccc(C(=O)NO)s4)ccc3OCC)nn12 [Example 2-10] |
